These results are taken from patent publication US4496551A (priority 1983, dated 1985).

In data set [1] the test system is Puccinia recondita var. tritici. The data set is described as follows: wheat leaf rust control on wheat seedlings. The following applies: for pest or weed control at 100 ppm: sprayed day before inoculation. It counts as in vivo. An outline of the steps:
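Compounds at 100 ppm (6% acetone, 250 ppm polyhydric alcohol ester surfactant in water) sprayed to run-off on wheat seedlings; inoculated next day with P. recondita spores. Kept 24 h at saturated humidity, 20°, then 7 days in growth room before rust pustule rating.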

A further data set concerns Erysiphe cichoracearum. Kind of data set: cucumber powdery mildew control on cucumber seedlings. It counts as in vivo. Conditions: Golovinomyces cichoracearum, 168 h, 7 days. An outline of the steps:
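Compounds at 100 ppm in water with 6% acetone and 250 ppm TREM 014 surfactant, sprayed to run-off on cucumber seedlings. Inoculation with Erysiphe cichoracearum spores the following day; disease rated after 7 days in a growth room against untreated plants.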

The next data set concerns Venturia inaequalis. The data set is described as follows: apple scab control on apple seedlings. Conditions: Venturia inaequalis. Format: in vivo. The method in brief: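 Apple seedlings sprayed to run-off with 100 ppm compound suspension (6% acetone, 250 ppm TREM 014 surfactant). Inoculated next day with Venturia inaequalis spores; 24 hours at 20° in saturated humidity, then 10-12 days in growth room. Scab lesions compared with untreated plants.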

The subject of the next data set is Helminthosporium maydis. The data set is described as follows: southern corn leaf blight control on corn seedlings. It counts as in vivo. The following applies: Bipolaris maydis, 168 h. The method in brief:
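Corn seedlings were sprayed to run-off with 100 ppm compound (6% acetone, 250 ppm TREM 014), inoculated next day with H. maydis spores, then kept 24 h at 20° in saturated humidity and 7 more days in a growth room. Lesions were rated as disease score.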

The subject of another data set is Cercospora arachidicola. The data set is described as follows: peanut early leafspot control on peanut seedlings. The following applies: Mycosphaerella arachidis, 336 h. Format: in vivo. The method in brief:
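Compounds dissolved in acetone (6% of final volume) and suspended at 100 ppm in water with 250 ppm TREM 014, sprayed to run-off on seedlings. Cercospora arachidicola inoculated next day; 24 h saturated humidity at 27°, then 14 days growth room before disease and leafspot rating.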

In another data set the test system is Rhizoctonia solani. Kind of data set: rice sheath blight control on rice seedlings. It counts as in vivo. Conditions: Rhizoctonia solani, 168 h, 7 days. The method in brief: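 Rice seedlings sprayed to run-off with 100 ppm compound suspension (6% acetone, 250 ppm surfactant), then inoculated next day with bran/mycelium of Rhizoctonia solani. After 7 days in a growth room, sheath blight disease was rated.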

A further data set relates to Pyricularia oryzae. The data set is described as follows: whole plant or invertebrate. Format: in vivo. Conditions: 168 h, read-out: % Control of Rice Blast.
For the next data set, the system named is Phytophthora infestans. The data set is described as follows: whole plant or invertebrate. Format: in vivo. Conditions: Phytophthora infestans, in Solanum lycopersicum, 168 h, read-out: % Control of Tomato Late Blight.
A further data set deals with cucumber seedlings. The data set is described as follows: phytotoxicity on cucumber seedlings. The following applies: 100 ppm. Format: in vivo. More on the design: key: G: growth reduction; H: hormonal effects.
For another data set, the system named is apple seedlings. Kind of data set: phytotoxicity on apple seedlings. The following applies: 100 ppm. It counts as in vivo. More on the design: key: B: Phytotoxic burn. How it is done:
Compounds of this invention were dissolved in acetone in an amount equal to 6% of the final volume and then suspended at a concentration of 100 ppm in purified water containing 250 ppm of the surfactant TREM 014 (polyhydric alcohol esters). This suspension was sprayed to the point of run-off on apple seedlings. The following day, the plants were inoculated with a spore suspension of the fungus Venturia inaequalis, causal agent of apple scab, and incubated in a saturated humidity chamber at 20° for 24 hours and then in a growth room for an additional 10-12 days. Treated plants from successful treatments had few or no apple scab lesions when compared to untreated plants which were covered with scab lesions.

A further data set deals with Erysiphe graminis. Kind of data set: barley powdery mildew control on barley seedlings. It counts as in vivo. Conditions: Blumeria graminis, 168 h; for pest or weed control at 100 ppm: 7 days. How it is done:
Several compounds of the previous examples were again dissolved in acetone in an amount equal to 6% of the final volume and then suspended at a concentration of 100 ppm in purified water containing 250 ppm of the surfactant TREM 014 (polyhydric alcohol esters). This suspension was sprayed to the point of run-off on barley seedlings. The following day, the plants were inoculated with a spore suspension of the fungus Erysiphe graminis, causal agent of barley powdery mildew, and incubated in a growth room for 7 days. Disease ratings were then made. Treated plants had little or no powdery mildew in contrast to untreated plants which were covered with powdery mildew.

The test system of another data set is Monilinia fructicola. The data set is described as follows: stone fruit brown rot colony growth inhibition on canned peach halves. The following applies: 120 h, dipped 3 minutes, five days, percent growth inhibition of colonies, read-out: % Control Brown Rot. It counts as cell-based. An excerpt: Several compounds of the previous examples were again dissolved in acetone in an amount equal to 5% of the final volume and then suspended at a concentration of 100 ppm in purified water containing 700 ppm of the surfactant TREM 014 (polyhydric alcohol esters). Canned peach halves were dipped in this suspension for three minutes and then placed to air dry in sterile containers. Upon drying, the peach halves were inoculated with two pieces of Monilinia fructicola, causal agent of stone fruit brown rot, mycelium and then incubated in the sterile containers for five days. At that time the radii of the colonies' growth were measured on each peach. […] Percent disease contol (percent growth inhibition of colonies on treated peaches as compared to that of colonies on untreated peaches) is expressed in the table below.

A further data set has as its system 5 Phytophthora species. It counts as cell-based. Conditions: 200.0 ppm in agar, 22° C., 6 days; controlled = radial growth 1 mm or less.
For data set [2], the system named is Pythium aphanadermatum. The data set is described as follows: Pythium control on coated cotton seeds. Format: in vivo. The following applies: 168 h, 2 gm/kg seed, 1 week. An excerpt: Several compounds of the previous examples were incorporated into a proprietary formulation and used to coat cotton seeds at a rate of 2 gm/kg seed. After being thoroughly coated, the seeds were allowed to air dry at room temperature. The cotton seeds were then planted into soil amended with the fungus Pythium aphanadermatum, sand, and corn meal at a rate sufficient to kill most untreated seeds. The seeds were held at room temperature for 1 week, after which time disease ratings were made.

Data set [3] concerns Pythium aphanadermatum. The data set is described as follows: Pythium control on coated corn seeds. It counts as in vivo. Conditions: 504 h, 2 gm/kg seed, 49° F. 2 weeks then 70° F. 1 week. How it is done:
Several compounds of the previous examples were incorporated into a proprietary formulation and used to coat corn seeds at a rate of 2 gm/kg seed. After being thoroughly coated, the seeds were allowed to air dry at room temperature. The seeds were then planted into soil amended with a mixture of the fungus Pythium aphanadermatum, sand, and corn meal at a rate sufficient to kill most untreated seeds. The seeds were held at 49° F. for 2 weeks and then at 70° F. for 1 additional week. After this time disease ratings were made.

The subject of another data set is peanut seedlings. Kind of data set: phytotoxicity on peanut seedlings. Conditions: 100 ppm. It counts as in vivo. Further details: key: B: Phytotoxic burn. How it is done:
Compounds of the previous examples were again dissolved in acetone in an amount equal to 6% of the final volume and then suspended at a concentration of 100 ppm in purified water containing 250 ppm of the surfactant TREM 014 (polyhydric alcohol esters). This suspension was sprayed to the point of run-off on peanut seedlings. The following day, the plants were inoculated with a spore suspension of Cercospora arachidicola, causal agent of peanut early leafspot, and incubated in a saturated humidity chamber at 27° for 24 hours and then in a growth room for an additional 14 days, when disease ratings were made. Treated plants from successful treatments had few or no leafspots while the untreated plants had numerous leafspots on each leaf.

In the case of `CCCC[Si](C)(Cn1ccnc1)c1ccc(Cl)cc1Cl` (stereo not shown) [Butyl(2,4-dichlorophenyl)(1H-imidazol-1-ylmethyl)methylsilane], the pest or weed control at 100 ppm in [1] is 100%; in the data set on Erysiphe cichoracearum, 100%; in the data set with Venturia inaequalis, 100%; in the data set with Helminthosporium maydis it was 80%; with Cercospora arachidicola, 100%; with Rhizoctonia solani, 90%. Moreover, the pest or weed control at 100 ppm in the data set with Pyricularia oryzae and in the data set with Phytophthora infestans was 0% each time. Further, the “Phytotoxicity (growth reduction or hormonal effects)” value with cucumber seedlings was “G”. The Phytotoxic burn result in the data set with apple seedlings is recorded as “B”.

With `C[Si](C)(Cn1ccnc1)c1ccc(Oc2ccccc2)cc1` [(1H-Imidazol-1-ylmethyl)dimethyl(4-phenoxyphenyl)silane], the pest or weed control at 100 ppm in [1] is 60%; in the data set on Erysiphe cichoracearum, 100%; in the data set on Erysiphe graminis, 0%; in the data set with Venturia inaequalis it was 100%; in the data set with Helminthosporium maydis, 0%; with Cercospora arachidicola it was 0%. Besides, the pest or weed control at 100 ppm with Rhizoctonia solani was 70%; in the data set with Pyricularia oryzae, 70%; with Phytophthora infestans, 80%. Besides, in the data set on Monilinia fructicola, the inhibition of growth at 100 ppm worked out at 80%. In addition, the “No. of 5 Phytophthora species controlled in vitro” value in the data set with 5 Phytophthora species was 4. For the same molecule, the pest or weed control at 2000 mg/kg in the data set with Pythium aphanadermatum [2] turned out to be 0%; in the data set on Pythium aphanadermatum [3], 5%.

For `C[Si](Cn1ccnc1)(c1ccccc1)c1ccc(Cl)cc1` (stereo not shown) [(4-Chlorophenyl)(1H-imidazol-1-ylmethyl)methyl(phenyl)silane], the pest or weed control at 100 ppm in [1] was 100%; in the data set with Erysiphe cichoracearum, 100%; with Venturia inaequalis, 100%; in the data set on Helminthosporium maydis, 0%; in the data set with Cercospora arachidicola it was 100%; in the data set on Rhizoctonia solani it was 0%. The pest or weed control at 100 ppm in the data set with Pyricularia oryzae and in the data set with Phytophthora infestans was 0% each time. Also, the inhibition of growth at 100 ppm in the data set on Monilinia fructicola amounted to 45%. The “No. of 5 Phytophthora species controlled in vitro” value in the data set with 5 Phytophthora species is recorded as 0.

In data set [1], `CCCCCCCCCCCC[Si](C)(C)Cn1ccnc1` [Dodecyl(dimethyl)(1H-imidazol-1-ylmethyl)silane] gave a pest or weed control at 400 ppm of 80%. Also, the figures for the pest or weed control at 100 ppm in the data set with Erysiphe cichoracearum, with Venturia inaequalis and in the data set on Helminthosporium maydis were 55%, 0% and 0%, respectively. The same molecule displayed a pest or weed control at 200 ppm in the data set on Erysiphe graminis (200 ppm) of 100%. Further, the Phytotoxic burn entry with apple seedlings was “B”.

For `C[Si](C)(Cn1ccnc1)c1ccc(C(F)(F)F)cc1` [Dimethyl(1H-imidazol-1-ylmethyl)(4-trifluoromethylphenyl)silane], the pest or weed control at 400 ppm in data set [1] worked out at 100%; in the data set on Venturia inaequalis (400 ppm), 60%. Moreover, the pest or weed control at 100 ppm in the data set with Erysiphe cichoracearum came out at 100%; in the data set with Erysiphe graminis, 100%; with Cercospora arachidicola, 36%. Further, the Phytotoxic burn result in the data set with peanut seedlings was “B”.

As to `C[Si](Cn1ccnc1)(c1ccccc1)c1ccc(F)cc1` (stereo not shown) [(4-Fluorophenyl)(1H-imidazol-1-ylmethyl)methyl(phenyl)silane], the pest or weed control at 100 ppm in data set [1] turned out to be 0%; in the data set on Erysiphe cichoracearum it was 100%; in the data set with Venturia inaequalis it was 100%; in the data set on Helminthosporium maydis, 80%; with Cercospora arachidicola it was 100%; in the data set with Rhizoctonia solani, 90%. In addition, the pest or weed control at 100 ppm is 100% with Pyricularia oryzae and 0% in the data set on Phytophthora infestans. The inhibition of growth at 100 ppm with Monilinia fructicola is 65%. The “No. of 5 Phytophthora species controlled in vitro” value in the data set on 5 Phytophthora species is given as 2.

Consider `C[Si](C)(Cn1ccnc1)c1ccc(F)cc1` [Dimethyl(4-fluorophenyl)(1H-imidazol-1-ylmethyl)silane], for which the pest or weed control at 100 ppm in [1] came out at 80%; with Erysiphe cichoracearum, 100%; in the data set with Venturia inaequalis, 0%; in the data set with Helminthosporium maydis it was 0%; in the data set on Cercospora arachidicola, 60%; with Rhizoctonia solani it was 0%. Besides, the pest or weed control at 100 ppm in the data set on Pyricularia oryzae and in the data set on Phytophthora infestans was 0% in each case. Further, the results for the pest or weed control at 2000 mg/kg with Pythium aphanadermatum [2] and with Pythium aphanadermatum [3] were 0% and 15%, respectively. Further, the “Phytotoxicity (growth reduction or hormonal effects)” value in the data set with cucumber seedlings was “G”. The Phytotoxic burn result in the data set with peanut seedlings is on record as “B”.

As for `CCCC[Si](C)(Cn1ccnc1)c1ccc(Cl)cc1` (stereo not shown) [Butyl(4-chlorophenyl)(1H-imidazol-1-ylmethyl)methylsilane], the pest or weed control at 100 ppm in data set [1] came to 90%; with Erysiphe cichoracearum, 100%; in the data set with Erysiphe graminis, 100%; in the data set with Venturia inaequalis, 90%; with Helminthosporium maydis it was 50%; in the data set with Cercospora arachidicola, 0%. The pest or weed control at 100 ppm in the data set with Rhizoctonia solani, in the data set with Pyricularia oryzae and with Phytophthora infestans was 0% throughout. For the same molecule, in the data set with Monilinia fructicola, the inhibition of growth at 100 ppm amounted to 45%. Also, the pest or weed control at 2000 mg/kg in the data set on Pythium aphanadermatum [2] and in the data set with Pythium aphanadermatum [3] was 0% throughout. Also, the “Phytotoxicity (growth reduction or hormonal effects)” value in the data set on cucumber seedlings is listed as “G”.

Turning to `C[Si](C)(Cn1ccnc1)C1CCCCC1` [Cyclohexyl(dimethyl(1H-imidazol-1-ylmethyl)silane], the pest or weed control at 100 ppm in [1] was 0%; in the data set on Erysiphe cichoracearum it was 100%; in the data set on Venturia inaequalis, 100%; with Helminthosporium maydis, 50%; in the data set on Cercospora arachidicola, 0%; in the data set on Rhizoctonia solani, 0%. In the data set with cucumber seedlings, the “Phytotoxicity (growth reduction or hormonal effects)” value was “G”. For the same molecule, the Phytotoxic burn result in the data set on apple seedlings is given as “B”.
